Source: patent US20250170114A1, “METHODS OF TREATMENT USING T-TYPE CALCIUM CHANNEL MODULATORS” (Praxis Precision Medicines, Inc., priority 2022, published 2025)

How the values were obtained:
[1] = tested on: upper limb tremor in participants with ET; assay: Phase 2 trial in essential tremor (Part A, Part B OLT, Part B RWD): TETRAS performance subscale, ADL and mADL scores; format: in vivo, human; parameters: key to TETRAS ADL Randomization Baseline Mean: TETRAS ADL: 12 items each rated 0 to 4
From the text: In some embodiments, the compound of Formula (I) or a pharmaceutically acceptable salt thereof (e.g., the HCl salt), when administered in combination with at least one of propranolol, primidone, topiramate, or a pharmaceutically acceptable salt thereof can reduce tremor severity by at least about 20% when measured by The Essential Tremor Rating Assessment Scale (TETRAS). The term “TETRAS” as used herein refers to a scale developed to quantify severity of ET and its impact on daily activities. It has an activities of daily living (ADL) section and a performance section. The ADL section has 12 items rated between 0 to 4, and the performance section has 9 items rated between 0 to 4. See, e.g., Elble, R. R., The Essential Tremor Rating Assessment Scale, J. Neurology Neuromed. 2016, 1(4):34-38. This multi-center clinical trial assessed the efficacy, safety, tolerability, and PK of the HCl salt compound of Formula (I) in participants aged 18 years of age or older who have had signs and symptoms consistent with ET for at least 3 years, with an onset before age 65. The clinical trial was conducted in 2 parts (Part A and Part B). Both parts consisted of 3 periods: Screening/Baseline, Intervention, and Safety Follow-up Periods. Part A of the clinical trial was open-label and assessed the safety and tolerability of the study drug, as well as the overall magnitude and pattern of change in ET severity. Daily dose levels of the HCl salt compound of Formula (I) were titrated from 20 mg (Day 1 to Day 7) to 40 mg (Days 8 to 14). Part B of the clinical trial consisted of both an open-label titration phase and a randomized, double-blind, placebo-controlled withdrawal phase. Part B assessed the safety and tolerability of the study drug, as well as the overall magnitude and pattern of change in ET severity and the duration of that effect. During the open-label titration phase, the daily dose levels of the HCl salt compound of Formula (I) were titrated from 20 mg (Days 1 to 3) to 40 mg (Days 4 to 7) to 60 mg (Days 8 to 14) to 80 mg (Days 15 to 21) to 100 mg (Days 22 to 28) to 120 mg (Days 29 to 42) or the highest tolerated dose. In the randomized, double-blind, placebo-controlled withdrawal phase, participants were either maintained on their final open-label dose or switched to placebo for an additional 14 days (Days 43 to 56). Part A. On Day 1, participants received a 20 mg dose of study drug, administered in the morning. Participants remained in a clinical setting under medical observation for approximately 6 hours. TETRAS Performance assessments were performed before dosing and 6 hours post-dose. After the first dose, participants continued QAM dosing at home after breakfast through Day 7. Participants returned to the clinic on Day 7 for efficacy testing at the 20 mg dose level. On Day 8, the dose increased to 40 mg QAM after breakfast through Day 14. Participants returned to the clinic on Day 14 for efficacy testing at the 40 mg dose level. Participants who agreed to optional additional PK sampling remained overnight in the clinic on Day 1, Day 7, and Day 14. Key safety measures included clinical laboratory evaluations, 12-lead ECG, C-SSRS, and vital signs. Key efficacy assessments included the TETRAS Performance subscale, TETRAS Upper Limb using accelerometry, CGI, and PGI-C. Blood samples were obtained for the determination of study drug plasma concentrations using a validated bioanalytical method and may also be used for method development and/or metabolite characterization. On Day 1, participants received a 20 mg dose of study drug on an empty stomach (at least 1 hour before breakfast). Participants remained in a clinical setting under medical observation for approximately 6 hours. TETRAS Performance assessments were performed before dosing and 6 hours (±2) post-dose. For dosing on Day 2 through Day 41, participants were instructed to dose QAM at least 1 hour before breakfast at home. Participants continued taking study drug 20 mg QAM at home through Day 3. […]

[2] = tested on: rat spontaneous locomotor activity (sLMA); assay: Rat spontaneous locomotor activity (sLMA) assay; format: in vivo; conditions: rats, 0-30 min; compound of Formula (I) 1 mg/kg p.o., propranolol 1 or 3 mg/kg i.p., alone or in combination
Method: […] Rat sLMA was measured from 0-30 min (0 minutes is 60 minutes after administration of the compound of Formula (I) and 20 minutes after administration of propranolol).

[3] = Part B OLT, Day 7, N = 10, change from pre-dose baseline
[4] = Part B OLT, Day 21, N = 12, change from pre-dose baseline
[5] = Part B OLT, Day 42, 6 hours post-dose, N = 11, change from pre-dose baseline
[6] = Part B RWD, Day 56, study drug group N = 6, change from randomization baseline, last line of the cell group
[7] = Part B RWD, study drug group N = 6, Day 42 post-dose value

CC(C)(C)NC(=O)CN1CCC(CNC(=O)c2cc(F)cc(Cl)c2)CC1.Cl [Study drug]
response (e.g., reduced tremor symptoms) of ET patients ([1]; ET patients who were taking propranolol hydrochloride, phase 2 clinical trial): responded favorably
all TETRAS performance subscale-derived scores after washout ([1]; Part A, Day 21, after a 1-week washout period): returned to near pre-dose baseline levels
mADL (TETRAS modified total score) CTA LS Mean % [1, 3]: −18.49%
mADL (TETRAS modified total score) Score CFB LS Mean [1, 3]: −2.862
TETRAS CULS Score CFB LS Mean [1, 4]: 1.320
mADL (TETRAS modified total score) CTA LS Mean % [1, 4]: −14.31%
mADL (TETRAS modified total score) Score CFB LS Mean [1, 4]: −2.812
mADL (TETRAS modified total score) CTA LS Mean % [1, 5]: −42.04%
mADL (TETRAS modified total score) Score CFB LS Mean [1, 5]: −6.669
TETRAS ADL LS Mean Difference: Study drug - Placebo (95% CI) ([1]; Part B RWD, Day 56): −9.578 (−18.9020, −0.2546)
TETRAS CULS LS Mean Difference: Study drug - Placebo (95% CI) ([1]; Part B RWD, Day 56): −1.896 (−8.7365, 4.9451)
TETRAS PSTS LS Mean Difference: Study drug - Placebo (95% CI) ([1]; Part B RWD, Day 56): −3.025 (−11.2090, 5.1595)
TETRAS ULS LS Mean Difference: Study drug - Placebo (95% CI) ([1]; Part B RWD, Day 56): −0.253 (−4.9188, 4.4129)
mADL LS Mean Difference: Study drug - Placebo (95% CI) ([1]; Part B RWD, Day 56): −8.439 (−15.3856, −1.4916)
mADL (TETRAS modified total score) LS Mean CFB ([1]; Part B RWD, Day 56, study drug group N = 6, change from randomization baseline): 1.350
TETRAS ADL Mean CFB [1, 6]: 5.84
mADL (TETRAS modified total score) Mean CFB [1, 6]: 8.45
mADL LS Mean Difference: Study drug - Placebo (95% CI) ([1]; Part B RWD, Day 56, listed as study drug): −8.439
TETRAS ADL LS Mean Difference: Study drug - Placebo (95% CI) ([1]; Part B RWD, Day 70): −5.988 (−16.8132, 4.8377)
TETRAS CULS LS Mean Difference: Study drug - Placebo (95% CI) ([1]; Part B RWD, Day 70): −0.964 (−6.5938, 4.6660)
TETRAS PSTS LS Mean Difference: Study drug - Placebo (95% CI) ([1]; Part B RWD, Day 70): −1.277 (−7.5286, 4.9741)
TETRAS ULS LS Mean Difference: Study drug - Placebo (95% CI) ([1]; Part B RWD, Day 70): −0.316 (−3.3765, 2.7441)
mADL LS Mean Difference: Study drug - Placebo (95% CI) ([1]; Part B RWD, Day 70): −3.236 (−12.3264, 5.8538)
mADL (TETRAS modified total score) LS Mean CFB ([1]; Part B RWD, Day 70 (follow-up), study drug group N = 6, change from randomization baseline): 4.353
TETRAS ADL Mean CFB ([1]; Part B RWD, Day 70 (follow-up), study drug group N = 6, change from randomization baseline, last line of the cell group): 18.73
TETRAS ADL Randomization Baseline Mean [1, 7]: 22.17
TETRAS CULS Randomization Baseline Mean [1, 7]: 19.33
TETRAS PS Item 6: Archimedes Spiral (Left) Randomization Baseline Mean (SD) [1, 7]: 1.75 (0.524)
TETRAS PS Item 6: Archimedes Spiral (Right) Randomization Baseline Mean (SD) [1, 7]: 1.75 (0.247)
TETRAS PS Item 7: Handwriting Randomization Baseline Mean (SD) [1, 7]: 1.75 (1.405)
TETRAS PSTS Randomization Baseline Mean [1, 7]: 22.83
TETRAS ULS Randomization Baseline Mean [1, 7]: 10.25
mADL (TETRAS modified total score) Randomization Baseline Mean [1, 7]: 12.17
all TETRAS performance subscale-derived, TETRAS ADL-derived, and quality of life measures after washout ([1]; Part B, Day 70, after a 1-week washout period): returned to near pre-dose baseline levels
total sLMA (total distance travelled) [2]: do not significantly reduce
